Results: patent US9969741B2, “Pyrazolotriazines as inhibitors of nucleases” (MASARYKOVA UNIVERZITA, priority 2014, dated 2018)

Assays:
FEN1 = FEN1 (Homo sapiens, UniProt P39748); assay: Nuclease inhibition assay, FEN1 (5′ flap fluorescent DNA substrate, gel readout); format: biochemical; conditions: 10 nM enzyme, 5 nM 5′ flap substrate, 15 min at 30° C.
Description: (§1) In vitro assays were used for the determination of compound's IC50 values for inhibition of individual nucleases, i.e., MUS81/EME1, FEN1, EXO1, and MRE11. To generate IC50 values, concentration of compound was plotted against relative nuclease activity (in %). The dose-response curves were generated from inhibition data, from 5 point serial dilutions of inhibitory compounds, each in triplicate and fitted to a standard sigmoid curve. IC50 values were derived by standard nonlinear regression analysis.
All tested compounds were diluted in 100% DMSO (dimethylsulfoxide) to prepare working stocks with different concentrations. To keep the DMSO concentration constant in every reaction, always 0.5 μl of the compound stock was added to the reaction buffer. The reaction buffer differs depending on the enzyme tested. Also concentration of the compounds in the reaction depends on the particular enzyme, since the inhibitory effect of the compounds vary between the enzymes. Nevertheless, always doubling dilutions in the range 200-0.8 μM was used. The compound was added as the first component in the reaction buffer, followed by the enzyme addition. […]
For this experiment we prepared short fluorescently labeled oligonucleotide-based DNA substrates with specific structures reflecting the biochemical activities of tested individual nucleases (Table 1). […] For visualization, each substrate was labeled by fluorescent dye (fluorescein), which can be detected in the gel using appropriate imaging system (FLA-9000, Fuji) with filters for particular wavelengths (excitation: 485 nm, emission: 535 nm).
Nuclease assays were performed in reaction buffer specific for particular enzyme: MUS81/EME1 (50 mM Tris pH=7.5, 5 mM MgCl2, 1 mM DTT a 100 μg/ml BSA), MRE11 (30 mM Bis-Tris pH=7.0, 50 μg/ml BSA, 1 mM DTT a 250 μM MnCl2), EXO1 and FEN1 (50 mM Tris pH=7.5, 1 mM MgCl2, 1 mM DTT a 100 μg/ml BSA). […] Fluorescently labeled DNA was detected by FLA-9000 scanner (Fuji) and the result was evaluated using Multi-Gauge V3.2 software (Fuji). […]

MUS81/EME1 = molecular target: T1, MUS81/EME1 (Homo sapiens, UniProt Q96NY9); assay: Nuclease inhibition assay, MUS81/EME1 (3′ flap fluorescent DNA substrate, gel readout); format: biochemical; conditions: 5 nM enzyme, 5 nM 3′ flap substrate, 15 min at 30° C.
T1 sequence (Q96NY9 1-551): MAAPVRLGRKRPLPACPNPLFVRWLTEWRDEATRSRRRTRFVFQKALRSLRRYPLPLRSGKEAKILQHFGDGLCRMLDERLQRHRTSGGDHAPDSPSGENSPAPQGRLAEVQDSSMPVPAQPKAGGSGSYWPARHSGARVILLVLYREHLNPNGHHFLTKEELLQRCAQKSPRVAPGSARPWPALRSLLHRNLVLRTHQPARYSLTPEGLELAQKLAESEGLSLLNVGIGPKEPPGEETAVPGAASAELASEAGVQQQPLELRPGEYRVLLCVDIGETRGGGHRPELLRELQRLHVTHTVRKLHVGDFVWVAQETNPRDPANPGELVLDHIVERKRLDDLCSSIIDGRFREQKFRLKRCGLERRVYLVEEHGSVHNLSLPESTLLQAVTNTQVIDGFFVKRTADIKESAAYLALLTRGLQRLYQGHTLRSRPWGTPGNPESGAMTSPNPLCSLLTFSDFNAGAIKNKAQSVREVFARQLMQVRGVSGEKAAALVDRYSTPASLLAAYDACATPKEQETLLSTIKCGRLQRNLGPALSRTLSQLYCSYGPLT
T1 sequence (Q96AY2 1-570 partner): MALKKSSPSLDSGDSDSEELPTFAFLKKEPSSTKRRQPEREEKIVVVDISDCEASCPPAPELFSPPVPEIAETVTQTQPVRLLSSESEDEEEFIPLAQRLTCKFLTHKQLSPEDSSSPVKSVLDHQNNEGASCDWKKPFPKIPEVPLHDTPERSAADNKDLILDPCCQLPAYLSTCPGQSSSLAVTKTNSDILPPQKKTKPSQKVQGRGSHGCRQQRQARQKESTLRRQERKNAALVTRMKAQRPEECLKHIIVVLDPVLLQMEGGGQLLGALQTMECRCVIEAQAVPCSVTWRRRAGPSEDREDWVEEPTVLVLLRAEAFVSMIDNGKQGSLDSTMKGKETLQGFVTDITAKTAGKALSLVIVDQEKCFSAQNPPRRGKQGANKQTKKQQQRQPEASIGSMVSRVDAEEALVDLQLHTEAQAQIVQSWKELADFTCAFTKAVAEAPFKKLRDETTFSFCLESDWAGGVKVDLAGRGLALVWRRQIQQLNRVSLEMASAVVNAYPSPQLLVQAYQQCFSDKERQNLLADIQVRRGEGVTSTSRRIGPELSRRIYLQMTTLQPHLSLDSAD
Description: as §1
All tested compounds were diluted in 100% DMSO (dimethylsulfoxide) to prepare working stocks with different concentrations. To keep the DMSO concentration constant in every reaction, always 0.5 μl of the compound stock was added to the reaction buffer. The reaction buffer differs depending on the enzyme tested. Also concentration of the compounds in the reaction depends on the particular enzyme, since the inhibitory effect of the compounds vary between the enzymes. Nevertheless, always doubling dilutions in the range 200-0.8 μM was used. The compound was added as the first component in the reaction buffer, followed by the enzyme addition. Short (15 minutes) pre-incubation step followed before the reaction was initiated by addition of DNA substrate (5 nM).
As a negative control, DNA substrate specific for each particular enzyme without the addition of the enzyme and the compound was used. The positive control contained all components of the reaction, except the compound of interest. However, to compensate for solvent effects, DMSO (at a final concentration of 2.5%) was included in the reaction.
For this experiment we prepared short fluorescently labeled oligonucleotide-based DNA substrates with specific structures reflecting the biochemical activities of tested individual nucleases (Table 1). These substrates were prepared by annealing of synthetic oligonucleotides purchased from VBC Biotech. Composition of each substrate is indicated below the table; the corresponding oligonucleotides were combined in equimolar ratios. For visualization, each substrate was labeled by fluorescent dye (fluorescein), which can be detected in the gel using appropriate imaging system (FLA-9000, Fuji) with filters for particular wavelengths (excitation: 485 nm, emission: 535 nm).
Nuclease assays were performed in reaction buffer specific for particular enzyme: MUS81/EME1 (50 mM Tris pH=7.5, 5 mM MgCl2, 1 mM DTT a 100 μg/ml BSA), MRE11 (30 mM Bis-Tris pH=7.0, 50 μg/ml BSA, 1 mM DTT a 250 μM MnCl2), EXO1 and FEN1 (50 mM Tris pH=7.5, 1 mM MgCl2, 1 mM DTT a 100 μg/ml BSA). The individual reactions were prepared by mixing with highly purified enzyme (MUS81/EME1 (5 nM), MRE11 (5 nM), EXO1 (5 nM) or FEN1 (10 nM); purification protocols described below), and different concentration of inhibitor (mentioned above) in corresponding reaction buffer. The final volume of the reaction was 20 μl. After short pre-incubation (15 minutes at room temperature), the reaction was initiated by addition of 5 nM of corresponding fluorescently labeled DNA substrate (3′ flap for MUS81/EME1, 5′ flap for MRE11 and FEN1, 3′ OH for EXO1; see FIG. 1) and incubated for 15 minutes at 30° C. Next, the reaction was stopped and deproteinized by addition of 2 μl of stop buffer, containing 0.1% SDS and 500 μg/ml proteinase K, and incubated for additional 5 minutes at 30° C. Then the loading dye, containing glycerol (60% glycerol, 10 mM Tris pH=7.4, 60 mM EDTA a 0.1% Orange G), was added to each reaction ( 1/10 of the reaction volume), and the whole mixture was subjected to electrophoresis in 10% polyacrylamide native gel (110 V, 40 min, 1× TBE). Fluorescently labeled DNA was detected by FLA-9000 scanner (Fuji) and the result was evaluated using Multi-Gauge V3.2 software (Fuji).
The Mus81/Eme1 expression construct was a kind gift from Dr. Steve West (Cancer Research UK). Briefly, the nuclease complex was purified as follows. […]

Chain of FEN1 (P39748 whole entry, species assumed): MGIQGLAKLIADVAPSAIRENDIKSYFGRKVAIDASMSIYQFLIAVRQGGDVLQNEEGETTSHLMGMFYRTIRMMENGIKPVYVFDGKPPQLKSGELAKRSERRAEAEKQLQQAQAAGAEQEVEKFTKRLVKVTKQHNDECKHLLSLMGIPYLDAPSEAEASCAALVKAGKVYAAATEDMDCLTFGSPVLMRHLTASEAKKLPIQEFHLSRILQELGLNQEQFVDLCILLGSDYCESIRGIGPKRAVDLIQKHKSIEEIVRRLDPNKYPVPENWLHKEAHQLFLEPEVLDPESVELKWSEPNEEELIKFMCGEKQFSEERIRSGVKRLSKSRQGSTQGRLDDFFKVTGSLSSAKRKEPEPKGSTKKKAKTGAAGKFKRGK

Structure (SMILES): CCc1nn2c(N)c(-c3nc4ccccc4[nH]3)nnc2c1-c1ccc(F)cc1 [Preparative Example 5A]
- IC50 (FEN1): > 50 µM
- IC50 (MUS81/EME1): < 10 µM

Structure (SMILES): Nc1c(-c2nc3ccccc3[nH]2)nnc2cc(-c3ccccc3)nn12 [Preparative Example 5C]
- IC50 (FEN1): > 50 µM
- IC50 (MUS81/EME1): < 50 µM

Structure (SMILES): Nc1c(-c2nc3ccccc3[nH]2)nnc2cc(-c3cccc4ccccc34)nn12 [Preparative Example 5K]
- IC50 (FEN1): > 50 µM
- IC50 (MUS81/EME1): < 10 µM
